The record followed here is patent US9216972B2, “Tricyclic heterocyclic compounds” (Bristol-Myers Squibb Company, priority 2009, dated 2015).

Assay [1] deals with S1P1 (membranes from S1P1/CHO cells) (Homo sapiens (Human), UniProt P21453). Description: Receptor [35S] GTPγS Binding Assay, S1P1. The assay is classed as biochemical. As to conditions: S1P1/CHO cell membranes; rounded to two digits. As for the experimental part:
(§1) Receptor [35S] GTPγS Binding Assays
(§2) Compounds were loaded in a 384 Falcon v-bottom plate (0.5 μl/well in a 11 point, 3-fold dilution). Membranes prepared from S1P1/CHO cells or EDG3-Ga15-bla HEK293T cells were added to the compound plate (40 μl/well, final protein 3 μg/well) with multidrop. [^35S]GTP (1250 Ci/mmol, Perkin Elmer) was diluted in assay buffer: 20 mM HEPES, pH7.5, 10 mM MgCl2, 150 mM NaCl, 1 mM EGTA, 1 mM DTT, 10 μM GDP, 0.1% fatty acid free BSA, and 10 μg/ml Saponin to 0.4 nM. 40 μl of the [^35S] GTP solution was added to the compound plate with a final concentration of 0.2 nM. The reaction was kept at room temperature for 45 min. At the end of incubation, all the mixtures in the compound plate were transferred to Millipore 384-well FB filter plates via the Velocity11 Vprep liquid handler. The filter plate was washed with water 4 times by using the manifold Embla plate washer and dried at 60° C. for 45 min. MicroScint 20 scintillation fluid (30 μl) was added to each well for counting on the Packard TopCount. EC50 is defined as the agonist concentration that corresponds to 50% of the Ymax (maximal response) obtained for each individual compound tested. The results in Table B were rounded to two digits.

For the next assay, the target named is human S1P1 (Homo sapiens (Human), UniProt P21453). The assay can be described thus: S1P1 Binding Assay (33P-S1P radioligand competition). The following applies: membranes from CHO cells expressing human S1P1; 0.03 nM 33P-S1P; rounded to two digits. As for the experimental part:
Membranes were prepared from CHO cells expressing human S1P1. Cells pellets (1×10^8cells/pellet) were suspended in buffer containing 20 mM HEPES, pH 7.5, 50 mM NaCl, 2 mM EDTA and Protease Inhibitor cocktail (Roche), and disrupted on ice using the Polytron homogenizer. The homogenate was centrifuged at 20,000 rpm (48,000 g) and the supernatant was discarded. The membrane pellets were resuspended in buffer containing 50 mM HEPES, pH 7.5, 100 mM NaCl, 1 mM MgCl2, 2 mM EDTA and stored in aliquots at −80° C. after protein concentration determination.
Membranes (2 μg/well) and 0.03 nM final concentration of ^33P-S1P ligand (1 mCi/ml, American Radiolabeled Chemicals) diluted in assay buffer (50 mM HEPES, pH7.4, 5 mM MgCl2, 1 mM CaCl2, 0.5% fatty acid free BSA, 1 mM NaF) were added to the compound plates (384 Falcon v-bottom plate (0.5 μl/well in a 11 point, 3-fold dilution). Binding was performed for 45 minutes at room temperature, terminated by collecting the membranes onto 384-well Millipore FB filter plates, and radioactivity was measured by TopCount. The competition data of the test compounds over a range of concentrations was plotted as percentage inhibition of radioligand specific binding. The IC50 is defined as the concentration of competing ligand needed to reduce specific binding by 50%.
In general terms: In a radioligand displacement assay an active substance lowers the binding of a labelled ligand.

For assay [2], the target named is S1P3 (membranes from EDG3-Ga15-bla HEK293T cells) (Homo sapiens (Human), UniProt Q99500). Description: Receptor [35S] GTPγS Binding Assay, S1P3. In kind it is biochemical. The following applies: EDG3-Ga15-bla HEK293T cell membranes; rounded to two digits. As for the experimental part:
as §1, §2

The subject of assay [3] is circulating blood lymphocytes. The assay can be described thus: Blood Lymphocyte Reduction Assay (BLR) in Rodents. In kind it is in vivo. As to conditions: Lewis rats, oral, dose 1.0 mg/kg, versus vehicle (PEG300) group. As for the experimental part:
Blood Lymphocyte Reduction Assay (BLR) in Rodents
Lewis rats were dosed orally with test article (as a solution or suspension in the vehicle) or vehicle alone (polyethylene glycol 300, “PEG300”). Blood was drawn at 4 hr and 24 h by retro-orbital bleeding. Blood lymphocyte counts were determined on an ADVIA 120 Hematology Analyzer (Siemens Healthcare Diagnostics). The results were measured as a reduction in the percentage of circulating lymphocytes as compared to the vehicle treated group at the 4 hr and 24 hr measurement. The results represent the average results of all animals within each treatment group (n=3-4).

Sequence of S1P1 (membranes from S1P1/CHO cells) (P21453 whole entry): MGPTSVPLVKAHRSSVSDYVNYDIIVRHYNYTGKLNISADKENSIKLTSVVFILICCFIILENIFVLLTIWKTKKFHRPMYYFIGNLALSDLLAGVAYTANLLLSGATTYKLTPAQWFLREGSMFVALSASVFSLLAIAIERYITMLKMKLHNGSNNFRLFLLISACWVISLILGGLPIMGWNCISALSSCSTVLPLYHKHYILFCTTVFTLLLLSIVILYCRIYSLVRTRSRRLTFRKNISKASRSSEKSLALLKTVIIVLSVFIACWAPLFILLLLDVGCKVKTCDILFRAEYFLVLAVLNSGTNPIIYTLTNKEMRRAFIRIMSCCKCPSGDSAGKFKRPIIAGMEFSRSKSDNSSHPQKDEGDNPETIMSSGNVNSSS
Sequence of human S1P1 (P21453 whole entry): as above
Sequence of S1P3 (membranes from EDG3-Ga15-bla HEK293T cells) (Q99500 whole entry): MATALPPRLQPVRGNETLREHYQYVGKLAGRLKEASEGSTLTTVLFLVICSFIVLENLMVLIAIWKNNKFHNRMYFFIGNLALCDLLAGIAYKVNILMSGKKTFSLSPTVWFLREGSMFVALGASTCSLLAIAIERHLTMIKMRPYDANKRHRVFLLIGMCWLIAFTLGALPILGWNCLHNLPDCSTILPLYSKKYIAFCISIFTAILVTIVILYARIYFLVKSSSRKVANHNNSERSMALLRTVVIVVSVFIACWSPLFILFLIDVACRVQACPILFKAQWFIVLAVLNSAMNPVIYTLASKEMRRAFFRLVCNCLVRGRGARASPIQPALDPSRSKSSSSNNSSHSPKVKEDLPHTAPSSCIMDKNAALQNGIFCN

Turning to `CC(N)(CO)CCc1ccc2c(c1)CCc1c-2noc1-c1noc(-c2ccccc2)c1C(F)(F)F` (single isomer, unassigned) [Example 93, 2-amino-2-methyl-4-(3-(5-phenyl-4-(trifluoromethyl)isoxazol-3-yl)-4,5-dihydronaphtho[1,2-c]isoxazol-7-yl)butan-1-ol], the EC50 (as a rule, the concentration needed to bring the measured effect to its halfway point) in assay [1] is 0.04 µM; in assay [2], above 63 µM. Further, the IC50 – broadly, the point on the concentration scale where inhibition reaches its midpoint – at human S1P1 worked out at 0.022 µM.
With `CC(N)(CCc1ccc2c(c1)CCc1c-2noc1-c1noc(-c2ccccc2)c1C(F)(F)F)C(=O)O` (single isomer, unassigned) [Example 94, 2-amino-2-methyl-4-(3-(5-phenyl-4-(trifluoromethyl)isoxazol-3-yl)-4,5-dihydronaphtho[1,2-c]isoxazol-7-yl)butanoic acid], the EC50 worked out at 0.012 µM in assay [1] and 16.2 µM in assay [2]. Further, the 50% inhibitory concentration (IC50) on human S1P1 was 0.016 µM.
Regarding `N#CC1(NC(=O)[C@H](O)c2ccc3c(c2)CCc2c-3noc2-c2noc(-c3ccccc3)c2C(F)(F)F)CC1` (stereo in doubt) [Example 132, N-(1-cyanocyclopropyl)-2-hydroxy-2-(3-(5-phenyl-4-(trifluoromethyl)isoxazol-3-yl)-4,5-dihydronaphtho[1,2-c]isoxazol-7-yl)acetamide], the EC50 amounted to 0.0017 µM in assay [1] and 8.5 µM in assay [2]. The same compound returned a half-inhibitory concentration (IC50) at human S1P1 of 0.0041 µM.
Regarding `CCCc1ccc(-c2onc3c2COc2cc(CN4CC(C(=O)O)C4)ccc2-3)cc1` [Example 2, 1-((3-(4-Propylphenyl)-4H-chromeno[4,3-c]isoxazol-7-yl)methyl)azetidine-3-carboxylic acid], the “% Reduction in Lymphocytes at 4 hr.” value in assay [3] was 65%. The results for the concentration for a half-maximal effect (EC50) in assay [1] and in assay [2] were 0.0012 µM and 8.2 µM, respectively. Besides, on human S1P1, the IC50 came out at 0.0012 µM.
Regarding `CCCc1ccc(-c2noc3c2COc2cc(CN4CC(C(=O)O)C4)ccc2-3)cc1` [Example 3, 1-((3-(4-Propylphenyl)-4H-chromeno[3,4-d]isoxazol-7-yl)methyl)azetidine-3-carboxylic acid], the “% Reduction in Lymphocytes at 4 hr.” value in assay [3] was 85%. The values for the concentration for a half-maximal effect (EC50) in assay [1] and in assay [2] were 0.0013 µM and 1.3 µM, respectively. Further, the concentration for half-maximal inhibition (IC50) on human S1P1 stood at 0.0013 µM.
As for `CC(C)Cc1onc(-c2onc3c2CCc2cc(CN4CC(C(=O)O)C4)ccc2-3)c1C(F)(F)F` [Example 5, 1-((3-(5-Isobutyl-4-(trifluoromethyl)isoxazol-3-yl)-4,5-dihydronaphtho[1,2-c]isoxazol-7-yl)methyl)azetidine-3-carboxylic acid], the “% Reduction in Lymphocytes at 4 hr.” value in assay [3] turned out to be 83%. Besides, the half-maximal effective concentration (EC50) in assay [1] turned out to be 0.00074 µM; in assay [2], 1.5 µM. On human S1P1, this compound came in with an IC50 of 0.00057 µM.
For the compound `O=C(O)C1CN(Cc2ccc3c(c2)CCc2c-3noc2-c2onc(-c3ccccc3)c2C(F)(F)F)C1` [Example 7, 1-((3-(3-Phenyl-4-(trifluoromethyl)isoxazol-5-yl)-4,5-dihydronaphtho[1,2-c]isoxazol-7-yl)methyl)azetidine-3-carboxylic acid], the concentration for a half-maximal effect (EC50) in assay [1] is 0.057 µM; in assay [2] it was above 31 µM. At human S1P1, this compound came in with an IC50 of 0.057 µM.
`CCCc1ccc(-c2onc3c2CCc2cc(OC[C@H](O)CO)ccc2-3)cc1` [Example 12, (R)-3-(3-(4-Propylphenyl)-4,5-dihydronaphtho[1,2-c]isoxazol-7-yloxy)propane-1,2-diol]: the EC50 is 6.3 µM in assay [1] and above 31 µM in assay [2]. In addition, the IC50 on human S1P1 came to 0.39 µM.
For `CC(C)Oc1ccc(-c2onc3c2CCc2cc(CN4CC(C(=O)O)C4)ccc2-3)cc1C(F)(F)F` [Example 14, 1-((3-(4-Isopropoxy-3-(trifluoromethyl)phenyl)-4,5-dihydronaphtho[1,2-c]isoxazol-7-yl)methyl)azetidine-3-carboxylic acid], the results for the half-maximal effective concentration (EC50) in assay [1] and in assay [2] were 0.011 µM and above 31 µM, respectively. This compound yielded an IC50 on human S1P1 of 0.0067 µM.
As to `CC(C)Oc1ccc(-c2onc3c2CCc2cc(CNCCC(=O)O)ccc2-3)cc1C#N` [Example 16, 3-((3-(3-Cyano-4-isopropoxyphenyl)-4,5-dihydronaphtho[1,2-c]isoxazol-7-yl)methylamine)propanoic acid], the values for the EC50 in assay [1] and in assay [2] were 0.024 µM and 11 µM, respectively. Moreover, the half-maximal inhibitory concentration (IC50) at human S1P1 worked out at 0.024 µM.
On to `CCCc1ccc(-c2noc3c2CCc2cc(CN4CC(C(=O)O)C4)ccc2-3)cc1` [Example 20, 1-((3-(4-Propylphenyl)-4,5-dihydronaphtho[2,1-d]isoxazol-7-yl)methyl)azetidine-3-carboxylic acid], for which the concentration giving a half-maximal response (EC50) in assay [1] is 0.22 µM; in assay [2] it was above 31 µM. The compound further registered an IC50 at human S1P1 of 0.056 µM.
On to `O=C(O)C1CN(Cc2ccc3c(c2)CCc2c-3n[nH]c2-c2onc(-c3ccccc3)c2C(F)(F)F)C1` [Example 22, 1-((3-(3-Phenyl-4-(trifluoromethyl)isoxazol-5-yl)-4,5-dihydro-2H-benzo[g]indazol-7-yl)methyl)azetidine-3-carboxylic acid], for which the EC50 in assay [1] was 0.98 µM; in assay [2], above 63 µM. This compound gave an IC50 at human S1P1 of 0.98 µM.
Consider `OCc1ccc2c(c1)CCc1c-2noc1-c1cccc(C(F)(F)F)c1` [Example 24, (3-(3-(Trifluoromethyl)phenyl)-4,5-dihydronaphtho[1,2-c]isoxazol-7-yl)methanol], for which the results for the 50% effective concentration (EC50) in assay [1] and in assay [2] were 3.2 µM and above 31 µM, respectively. Also, the half-maximal inhibitory concentration (IC50) on human S1P1 came to 3.2 µM.
Consider `Oc1ccc2c(c1)CCc1c-2noc1-c1cc(-c2ccccc2)on1` [Example 32, 3-(5-Phenylisoxazol-3-yl)-4,5-dihydronaphtho[1,2-c]isoxazol-7-ol], for which the concentration for a half-maximal effect (EC50) in assay [1] was 15 µM; in assay [2], above 63 µM. This compound yielded a half-inhibitory concentration (IC50) on human S1P1 of 15 µM.
Turning to `Oc1ccc2c(c1)CCc1c-2noc1-c1cc(-c2ccccc2Cl)n(-c2ccccc2)n1` [Example 33, 3-(5-(2-Chlorophenyl)-1-phenyl-1H-pyrazol-3-yl)-4,5-dihydronaphtho[1,2-c]isoxazol-7-ol], the concentration giving a half-maximal response (EC50) in assay [1] was 0.25 µM; in assay [2] it was above 31 µM. On human S1P1, this compound displayed an IC50 of 0.25 µM.
`CC(C)Cc1ccc(-c2onc3c2CCc2cc(O)ccc2-3)cc1` [Example 41, 3-(4-Isobutylphenyl)-4,5-dihydronaphtho[1,2-c]isoxazol-7-ol]: the EC50 in assay [1] is 1.6 µM; in assay [2], above 63 µM. Further, the 50% inhibitory concentration (IC50) at human S1P1 came out at 1.6 µM.
On to `O=C(O)C1CN(Cc2ccc3c(c2)OCc2c-3noc2-c2onc(-c3ccccc3)c2C(F)(F)F)C1` [Example 61, 1-((3-(3-phenyl-4-(trifluoromethyl)isoxazol-5-yl)-4H-chromeno[4,3-c]isoxazol-7-yl)methyl)-azetidine-3-carboxylic acid], for which the values for the EC50 in assay [1] and in assay [2] were 0.00032 µM and above 31 µM, respectively. The compound also yielded a half-maximal inhibitory concentration (IC50) on human S1P1 of 0.0016 µM.
In the case of `O=C(O)C1CN(Cc2cc3c(cc2F)-c2noc(-c4onc(-c5ccccc5)c4C(F)(F)F)c2CC3)C1` [Example 67], the concentration for a half-maximal effect (EC50) was 0.00076 µM in assay [1] and 14.7 µM in assay [2]. Besides, the IC50 on human S1P1 came out at 0.0056 µM.
As for `O=C(O)[C@H]1CCCN(Cc2ccc3c(c2)CCc2c-3noc2-c2noc(-c3ccccc3)c2C(F)(F)F)C1` [Example 70, (3S)-1-((3-(5-Phenyl-4-(trifluoromethyl)isoxazol-3-yl)-4,5-dihydronaphtho[1,2-c]isoxazol-7-yl)methyl)piperidine-3-carboxylic acid], the half-maximal effective concentration (EC50) in assay [1] worked out at 0.049 µM; in assay [2], 4.66 µM. Moreover, the 50% inhibitory concentration (IC50) on human S1P1 was found to be 0.022 µM.
For `OCC1COCCN1Cc1ccc2c(c1)CCc1c-2noc1-c1noc(-c2ccccc2)c1C(F)(F)F` (stereo not drawn) [Example 74], in that order: 0.41 µM, above 63 µM and 0.6 µM.
